Test results taken from patent US20030162732A1, “Combination of aminosugars and cysteine or cysteine derivatives” (Astion Development A/S, priority 2001, published 2003).

Columns and labels:
[1] = tested on: tendonitis of the arm; osteoarthritis of the hips and knees; knee injury involving cartilage damage; experiment: small preliminary clinical investigation, three persons, oral aqueous solution of compound 105; assay type: in vivo, human; conditions: person, normal doses, patient history
Description: In a small preliminary clinical investigation three persons administered a pharmaceutical composition according to the invention. The composition was an aqueous solution (100 mg/ml) of compound 105, which is the complex of the invention prepared according to example 105.
One patient was […] and had suffered from tendonitis of the arm for eight months. The symptoms were chronic muscle pain and some degree of immobility of the arm.
The composition of the invention was administered orally corresponding to 3000 mg compound 105 twice a day. […] After a further week of treatment the treatment was discontinued.
Another patient was […] and had suffered from osteoarthritis of the hips and knees for ten years. For some periods the patient had been treated with celecoxib, paracetamol and/or codein to control the pain. The main symptoms were pain and immobility of the joints. The composition of the invention was administered orally corresponding to 3000 mg compound 105 twice a day.
The symptoms were pain and immobility of the knee joint. The composition of the invention was administered orally corresponding to 3000 mg compound 105 twice a day. […] During the next two days the symptoms started reappearing.

[2] = tested on: carrageenin-induced paw oedema; experiment: carrageenin-induced paw oedema test in the rat; assay type: in vivo; conditions: day 0
Text: The objective of this study is to assess the effect of complexes or compositions of the invention in the carrageenin-induced paw oedema test in the rat, a commonly employed method for screening and evaluation of antiinflammatory drugs. Carrageenin, the phlogistic agent of choice for testing antiinflammatory drugs, is a mucopolysaccharide derived from Irish sea moss, Chondrus. Ibuprofen is used as a positive control.
The test article is the complex of the invention prepared according to example 105 (Compound 105 in the following). Compound 105 and Ibuprofen are obtained from Astion A/S, Denmark.
The test article is dissolved in milli-Q water. 0.9% NaCl solution is used as vehicle.
The study is performed in male SPF Sprague Dawley rats of the stock Mol:SPRD from M & B A/S, Tornbjergvej 40, DK-4623 Lille Skensved, Denmark. At start of the acclimatisation period the rats are in the weight range of 80-100 g.
All doses of Compound 105 are administered intraperitoneally in volumes of 20 ml per kg body weight, once daily on day −2 and −1 to groups 2,3 and 4 only and on day 0 to groups 2-6, 0-5 minutes before injection of carrageenin into the foot on day 0. Ibuprofen and vehicle are administered orally by gavage in volumes of 20 ml/kg body weight on day 0, 0-5 minutes before injection of the carrageenin into the foot.
Carrageenin (from Sigma) is prepared as a 1% suspension in sterile 0.9% NaCl-solution. A volume of 0.1 ml is injected through a 25-gauge needle into the plantar tissue of the right hind paw of the rats within 5 minutes after treatment with the test articles.
Immediately before the dosing and carrageenin injection and three and five hours later the foot volume is measured using a plethysmometer LE 7500 from Letica Scientific Instruments, Spain.

SMILES: CC(C)Cc1ccc(C(C)C(=O)O)cc1 (centres unmarked) [Ibuprofen]
- symptomatic effect of earlier treatment [1]: limited symptomatic effect
- inhibition of the paw oedema ([2]; after 5 hours, 50 mg/kg orally by gavage): 77%
- inhibition of the paw oedema ([2]; after 5 hours, 150 mg/kg orally by gavage): 97%
- inhibition of the paw oedema ([2]; after three hours, 50 mg/kg orally by gavage): 37%
- inhibition of the paw oedema ([2]; after three hours, 150 mg/kg orally by gavage): 57%
